Test results as given in patent publication US20230097253A1, “NOVEL QUINAZOLINE COMPOUND AS THERAPEUTIC AGENT FOR METABOLIC DISORDERS” (BIOWAY., INC, priority 2020, published 2023).

Experiments:
[1] = test system: steatosis-induced Huh7 cells; assay: Protein expression for verification of multiple mode regulator, with and without AMPK inhibitor (western blot); type: cell-based
Description: (§1) To induce steatosis in Huh-7 cells in each well except for control cells, the Huh-7 cells were treated with PA bound to 2% BSA at a concentration of 250 μM except for the control, and the control cells were pretreated with 2% BSA without FA.
[…] The control cells and PA treated cells were treated with DMSO. All media were aspirated and the cells were gently washed 3 times with cold PBS.
(§2) A cold lysis buffer containing 150 mM sodium chloride (NaCl), 5 mM ethylenediaminetetraacetic acid (EDTA), pH 8.0, […] 4-(2-hydroxyethyl)-1-piperazineethanesulfonic acid (HEPES), 1% nonylphenoxypolyethoxylethanol (NP-40), 2 μg/mL aprotinin, 1 μM pepstatin A, 10 μM leupeptin, 1 mM sodium fluoride (NaF), 0.2 mM sodium orthovanadate ([…]), and 1 μM phenylmethylsulfonyl fluoride (PMSF) was added thereto.
A whole cell lysate was collected and gently pipetted at least 10 times to ensure complete lysis. The sample was incubated on ice for 20 minutes and centrifuged 4° C. at 13,000 rpm, for 20 minutes. The supernatant was collected, 5× sodium dodecyl sulfate (SDS) sample buffer containing 50 mM Tris-CI (pH 6.8), 2% SDS, 0.1% bromopheol blue, and 10% glycerol was added to the sample, and boiled at 95° C. for 5 minutes.
The wells of 10% SDS-polyacrylamide gel electrophoresis (SDS-PAGE) were loaded with the same amount of a protein along with the molecular weight marker. The gel was electrophoresed at 100 V for 30 minutes in an electrophoresis chamber (Bio-Rad Laboratories, Hercules, Calif., USA).
A polyvinylidene fluoride (PVDF) membrane (MilliporeSigma, Burlington, Mass., USA) was activated with methanol (MeOH) for 1 minute and washed with a transfer buffer containing 25 mM Tris, 190 mM glycine, and 20% MeOH. The gel was placed in the transfer buffer for 10 minutes.
The transfer sandwich (in the order of paper, gel, membrane, and paper) was assembled and it was checked whether no air bubbles were trapped in the transfer sandwich. […]
(§3) Images were acquired using an ImageQuant LAS 3000 (Fujifilm, Tokyo, Japan). Data were analyzed.

DIAMOND™ mouse model [2] = assay: In-vivo activity, histopathological diagnosis (H&E and Oil-Red-O staining of liver tissue); settings: DIAMOND mice, 16 mg/kg oral once daily for 8 weeks, FIG. 18
Description: (§4) The DIAMOND™ mouse model, an animal model prepared using a Western diet and sugar water, was used. The DIAMOND™ mice were induced with WDSW for 14 weeks, and 12 mice were used for the control group and 12 mice for the BW-3290 treatment group, and BW-3290 was orally administered at 16 mg/kg once daily for 8 weeks. An autopsy was performed at week 22, and blood collection and tissue storage were performed for the individuals in each group.
Hematoxylin & Eosin (H&E) staining and Oil-Red-O (ORO) staining were performed using liver tissue obtained after autopsy

DIAMOND™ mouse model [3] = assay: Efficacy in improving liver fibrosis (Sirius Red and Trichrome staining of liver tissue); type: in vivo; settings: DIAMOND mice liver tissue, 16 mg/kg oral once daily for 8 weeks, compared to control group (VC)
Description: as §4
Staining was performed by Sirius Red staining and Trichrome (Masson's trichrome) staining, which are the staining methods that can confirm fibrosis, was stained using the liver tissue obtained after autopsy.

[4] = test system: steatosis-induced Huh-7 cells; assay: Expression of lipogenesis-related proteins (western blot); type: cell-based; settings: Huh7 cells, 250 μM PA; 0.5, 2.5, 10 μM, 24 hours; FIG. 9-A
Description: as §1
The cells in each well were treated with the compound of Chemical Formula 2 0.5 μM, 2.5 μM, and 10 μM and then cultured for 24 hours. The control cells and PA treated cells were treated with DMSO. All media were aspirated and the cells were gently washed 3 times with cold PBS.
as §2
A whole cell lysate was collected and gently pipetted at least 10 times to ensure complete lysis. The sample was incubated on ice for 20 minutes and centrifuged 4° C. at 13,000 rpm, for 20 minutes. […]
as §3

[5] = test system: steatosis-induced Huh7 cells; assay: Fat globule reducing effect by Oil-Red-O staining, compared to existing developed materials; type: cell-based; settings: FIG. 3
Description: In order to confirm the inhibition of fat accumulation in steatosis-induced liver cells, Huh7 cells were cultured in an incubator set at 37° C., 95% humidity, and 5% C02.
Additionally, Huh7 cells were proliferated to a confluency of 80-90% on a plate using a growth medium (Dulbecco's modified Eagle's medium (DMEM) supplemented with 10% fetal bovine serum (FBS), 100 U/ml of penicillin, and 100 μg/ml of streptomycin), and then used for the experiment.
In order to confirm the ability of BW-3290 to inhibit fat globule accumulation in steatosis-induced liver cells compared to the existing material under development, the liver cells were treated with palmitic acid (PA) bound to 2% BSA at a concentration of 250 μM except for the control group to induce steatosis, and then fat globules were stained through Oil-Red-O staining.
First, liver cells were cultured to grow 80-90% confluency in a 12 well plate, and the test material, BW-3290, were diluted in the culture medium that induced steatosis and the liver cells, except for the control group, were treated with 0.5 μM, 2.5 μM, 5 μM, and […].
Additionally, after removing the cell supernatant from the wells for Oil-Red-O staining, the washing process was performed twice with PBS.
Additionally, after washing, the resultant was fixed with 4% paraformaldehyde for 30 minutes. […]

Structure (SMILES): CC(C)C(Nc1ncnc2nc[nH]c12)c1nc2cccc(Cl)c2c(=O)n1-c1ccccc1 (centres unmarked) [BW-3290, 2-(1-((7H-purin-6-yl)amino)-2-methylpropyl)-5-chloro-3-phenylquinazolin-4(3H)-one]
- activity of SIRT1 and AMPK (p-AMPK, p-ACC) when AMPK activity is inhibited ([1]; 250 μM PA, 10 μM compound C (AMPK inhibitor), 10 and 20 μM BW-3290, 24 hours, FIG. 15): increases the activity of SIRT1 and AMPK
- AMPK protein expression level ([1]; 0.5, 2.5, 10 μM, FIG. 13): increase in a concentration-dependent manner
- SIRT1 protein expression level ([1]; 0.5, 2.5, 10 μM, FIG. 13): increase in a concentration-dependent manner
- fat cells stained in red in liver tissue, ORO staining (DIAMOND™ mouse model [2]; compared to the control group (VC)): reduced
- fat globules in liver tissue, H&E staining (DIAMOND™ mouse model [2]; compared to the control group): reduced
- fiberized portions stained in blue by Trichrome staining (DIAMOND™ mouse model [3]): reduced
- collagen and amyloid tissues stained in red by Sirius Red staining (DIAMOND™ mouse model [3]; FIGS. 19 and 22): decreased
- level of FAS protein [4]: decreased in a concentration-dependent manner
- level of SREBP1 protein [4]: decreased in a concentration-dependent manner
- fat globule staining (Oil-Red-O) compared to PA ([5]; 250 μM PA, 0.5, 2.5, 5 and 10 μM, concentration dependent): lower level of fat globule staining compared to PA
- staining of fat globules in comparison with PF-06409577 and elafibranor ([5]; 250 μM PA, at the same concentration of 10 μM and at lower concentrations): reduced
